Test results taken from the supplement of paper PMC6045584.

What was measured:
Assay in all cases: area under dose-response curve of surviving fraction (unscaled, Aref=0) (surviving fraction x log10(nM)); higher = more resistant
Conditions in all cases: exposure time: 5 days; dose range 0.5-1000 nM
ERLOTINIB = compound: C#Cc1cccc(Nc2ncnc3cc(OCCOC)c(OCCOC)cc23)c1 [ERLOTINIB]
Summary of the method: (§1)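 Tumour cell lines in 384-well plates were exposed for five days to eight inhibitor concentrations from 0.5 to 1000 nM. Viability was read by CellTiter-Glo luminescence, normalised to DMSO-only wells, in three screens per line. Dose-response survival curves were fitted to surviving fractions by 3-parameter logistic regression in the drc R package. Area under the curve is the unscaled activity area (Aref = 0) over log10 dose.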

VINORELBINE = compound: CCC1=C[C@@H]2CN(C1)Cc1c([nH]c3ccccc13)[C@@](C(=O)OC)(c1cc3c(cc1OC)N(C)[C@H]1[C@@](O)(C(=O)OC)[C@H](OC(C)=O)[C@]4(CC)C=CCN5CC[C@]31[C@@H]54)C2 [VINORELBINE]
Summary of the method: as §1

PLX-4720 = compound: CCCS(=O)(=O)Nc1ccc(F)c(C(=O)c2c[nH]c3ncc(Cl)cc23)c1F [PLX-4720]
Summary of the method: as §1

SUNITINIB = compound: CCN(CC)CCNC(=O)c1c(C)[nH]c(/C=C2\C(=O)Nc3ccc(F)cc32)c1C [SUNITINIB]
Summary of the method: as §1

METHOTREXATE = compound: CN(Cc1cnc2nc(N)nc(N)c2n1)c1ccc(C(=O)N[C@@H](CCC(=O)O)C(=O)O)cc1 [METHOTREXATE]
Summary of the method: as §1

EVEROLIMUS = compound: CO[C@H]1C[C@@H]2CC[C@@H](C)[C@@](O)(O2)C(=O)C(=O)N2CCCC[C@H]2C(=O)O[C@H]([C@H](C)C[C@@H]2CC[C@@H](OCCO)[C@H](OC)C2)CC(=O)[C@H](C)/C=C(\C)[C@@H](O)[C@@H](OC)C(=O)[C@H](C)C[C@H](C)/C=C/C=C/C=C/1C [EVEROLIMUS]
Summary of the method: as §1

AZD4547 = compound: COc1cc(CCc2cc(NC(=O)c3ccc(N4CC(C)NC(C)C4)cc3)n[nH]2)cc(OC)c1 [AZD4547]
Summary of the method: as §1

ETOPOSIDE = compound: COc1cc([C@@H]2c3cc4c(cc3[C@@H](O[C@@H]3O[C@@H]5CO[C@@H](C)O[C@H]5[C@H](O)[C@H]3O)[C@H]3COC(=O)[C@H]23)OCO4)cc(OC)c1O [ETOPOSIDE]
Summary of the method: as §1

[1] = compound: Cc1nc(Nc2n[nH]c3c2CN(C(=O)N[C@H](CN(C)C)c2ccccc2)C3(C)C)c2sccc2n1
Summary of the method: as §1

MK2206 = compound: NC1(c2ccc(-c3nc4ccn5c(=O)[nH]nc5c4cc3-c3ccccc3)cc2)CCC1 [MK2206]
Summary of the method: as §1

GEMCITABINE = compound: Nc1ccn([C@@H]2O[C@H](CO)[C@@H](O)C2(F)F)c(=O)n1 [GEMCITABINE]
Summary of the method: as §1

[2] = compound: O=C(NOCC1CC1)c1ccc(F)c(F)c1Nc1ccc(I)cc1Cl
Summary of the method: as §1

MK0752 = compound: O=C(O)CC[C@H]1CC[C@@](c2cc(F)ccc2F)(S(=O)(=O)c2ccc(Cl)cc2)CC1 [MK0752]
Summary of the method: as §1

| Test System | area under dose-response curve (ERLOTINIB) | area under dose-response curve (VINORELBINE) | area under dose-response curve (PLX-4720) | area under dose-response curve (SUNITINIB) | area under dose-response curve (METHOTREXATE) | area under dose-response curve (EVEROLIMUS) | area under dose-response curve (AZD4547) | area under dose-response curve (ETOPOSIDE) | area under dose-response curve [1] | area under dose-response curve (MK2206) | area under dose-response curve (GEMCITABINE) | area under dose-response curve [2] | area under dose-response curve (MK0752) |
| --- | --- | --- | --- | --- | --- | --- | --- | --- | --- | --- | --- | --- | --- |
| CADOES1 SOFT TISSUE | 2.74 | 2.63 | 3.09 | 3.22 | 1.82 | 1.49 | 3.23 | 3 | 2.56 | 2.82 | 1.18 | 2.87 | 3.14 |
| CAL51 BREAST | 3.36 | 1.28 | 3.19 | 2.99 | 1.91 | 1.23 | 2.67 | 2.79 | 0.818 | 3.16 | 0.99 | 3.12 | 3.32 |
| CASKI CERVIX | 2.27 | 1.27 | 3 | 2.3 | 2.23 | – | 3.17 | 2.72 | 0.674 | 2.5 | 1.01 | 2.58 | 3.28 |
| CHLA90 AUTONOMIC GANGLIA | 3.07 | 1.69 | 2.66 | 2.21 | 3.53 | 1.36 | 2.77 | 2.94 | 1.57 | 3.16 | 1.39 | 2.38 | 3.36 |
| COLO320DM LARGE INTESTINE | 3.34 | 3.2 | 3.03 | 2.59 | 1.92 | 2.62 | 3.59 | 3.54 | 2.68 | 3.11 | 1.53 | 3.26 | 3.87 |
| DU4475 BREAST | 3.44 | 1.96 | 1.92 | 2.1 | 3.28 | 0.518 | 3.5 | 1.65 | 0.457 | 2.76 | 1.48 | 1.65 | 3.26 |
| H23 LUNG | 2.52 | 1.74 | 3.19 | 2.86 | 1.75 | 1.76 | 3.37 | 3.08 | 1.47 | 3.04 | 1.22 | 2.08 | 3.65 |
| HCC70 BREAST | 3.46 | 1.66 | 3.36 | 3.4 | 3 | 1.89 | 3.63 | 3.16 | 0.85 | 2.8 | 1.12 | 2.8 | 3.56 |
| HCC78 LUNG | 2.89 | 1.48 | 3.25 | 2.96 | 2.26 | 1.75 | 3.56 | 2.45 | 1.31 | 2.5 | 0.382 | 2.58 | 3.32 |
| HCC1954 BREAST | 2.94 | 1.3 | 1.55 | 1.44 | 3.57 | 1.2 | 3.05 | 2.69 | 1.63 | 3.11 | 1.75 | 3.07 | 3.08 |
| HCT15 LARGE INTESTINE | 3.48 | 2.64 | 2.63 | 2.37 | 1.59 | 1.86 | 3.52 | 3.09 | 2.81 | 3.46 | 1.15 | 2.63 | 3.61 |
| HOS BONE | 3.4 | 1.78 | 3.19 | 3.1 | 1.32 | 2.56 | 3.24 | 2.45 | 1.45 | 3.15 | 0.975 | 3.27 | 3.51 |
| HSSYII SYNOVIAL | 3.37 | 0.855 | 2.43 | 1.93 | 2.96 | 1.79 | 1.51 | 2.41 | 1.02 | 3.02 | 0.795 | 2.61 | 3.29 |
| JIMT1 BREAST | 3.16 | 1.24 | 3.05 | 2.96 | 1.69 | 1.88 | 3.41 | 3.23 | 2.28 | 3.01 | 1.44 | 3.11 | 3.29 |
